Regarding `O=C(O)CCc1cnoc1-c1ccc(F)c(Cl)c1`, the melting point (commonly the temperature of the solid-liquid transition) lay within 118 to 119 °C.
Under `CS(=O)(=O)c1ccc(C(CC2CCCCC2)C(=O)O)cc1` (stereo unspecified) stands 139 to 143 °C.
Under `O=[N+]([O-])c1ccccc1/C=C/c1ccccc1[N+](=O)[O-]` stands 195 to 196 °C; under `Cc1cccc(NC(=O)CC23CC4CC(CC(C4)C2)C3)c1C`, 170 °C; under `CCn1cnc2cc(C(F)(F)F)c(Cl)c(N)c21`, 192 to 193 °C.
Under `NCCSc1ncccc1C(O)c1ccccc1` (stereo unspecified) stands 118 to 120 °C; under `Cc1ccc(Oc2ccc(C#N)cc2)c(O)c1`, 118 to 119 °C; under `COc1cc(C)c(C(=O)c2c(Cl)cccc2Cl)cc1OC(C)(C)C`, 102 °C.
`Cc1cnc2c(NC(=O)c3c(Cl)cccc3Cl)ccc(C)c2c1Cl`: the melting point lay within 236 to 240 °C.
To `Cc1c(-c2ccc(C(C)(C)C)cc2)[nH]c2nccnc12` belongs 213 to 214 °C.
To `C#CCn1c(=O)[nH]c(=O)n(-c2cc(N3C(=O)C4=C(CCCC4)C3=O)c(F)cc2Cl)c1=O` belongs 127 to 135 °C.
To `COc1ccc2[nH]c(S(=O)Cc3nccc(N(C)C)c3Cl)nc2c1` (stereo unspecified) belongs 113 to 114 °C; to `CN(C(=O)C1CCC1)c1cccc(-c2ccnc3c(C(=O)c4ccco4)cnn23)c1`, 166 to 167 °C; to `COc1ccc(CCCC(=O)NC(NC(=NC#N)Nc2cccnc2C)C(C)(C)C)cc1` (stereo unspecified), 65 to 68 °C.
On to `O=C(O)c1[nH]c(=O)[nH]c(=O)c1[N+](=O)[O-]`, for which the melting point is > 300 °C.
Consider `Cc1cc(C)cc(COC2CCCCC2(N)c2ccccc2)c1` (stereo unspecified), for which the melting point lay within 75 to 78 °C.
Under `CC(=O)O[C@H]1C=C(Br)C(=O)[C@@H]2O[C@H]12` stands 93 to 94 °C; under `CCOC(=O)c1c(C2CC2)nn(CC)c1Cc1ccc(-c2ccccc2-c2nnn(C(c3ccccc3)(c3ccccc3)c3ccccc3)n2)cc1`, 164 to 168 °C.
`COC(=O)C1=C(C)NC(C)=C(C(=O)OCCCCCCCC#N)C1c1cccc([N+](=O)[O-])c1` (stereo unspecified) showed a melting point of 151 to 152 °C.
To `O=C(CCNC1CC1)Nc1cc(-c2nnc(SCc3cccc(F)c3)o2)ccn1` belongs 102 to 103 °C.
Under `O=c1[nH]c2ccccc2c(=O)n1Cc1ccc(Cl)c(Cl)c1` stands 274 to 275 °C.
To `COC(=O)C1=C(C)NC(c2sc(C)nc2C)=NC1c1ccc(F)cc1Cl` (stereo unspecified) belongs 116 to 118 °C.
With `NCC1Cc2cc(-c3cccc(F)c3)cc(F)c2O1` (stereo unspecified), the melting point was > 250 °C.
To `O=C(O)c1cc(NCc2c(F)c(F)c(C(F)(F)F)c(F)c2F)ccc1OC(F)(F)F` belongs 38 °C.
Regarding `O=C(OCCN1CCNC1=O)c1ccccc1`, the melting point lay within 130 to 132 °C.
For `CCOCC1=C(C(=O)OCC)C(c2ccccc2Cl)C(C(=O)OCC)=C(C)N1` (stereo unspecified), the melting point was 115 °C.
Under `CC(C)(C)OC(=O)NCc1nc2c(C(F)(F)F)cccc2c(=O)o1` stands 176 °C.
To `O=C1OC(=O)c2cscc21` belongs 147 to 149 °C; to `CCCc1ccc2oc(Cc3ccc(OC)cc3)c(C)c2c1O`, 83 to 96 °C; to `OCCN1CCn2c1nc1ccccc12`, 158 to 160 °C.
Under `O=C(c1ccccc1)c1ccc(O)c(Cl)c1Cl` stands 123 to 126 °C; under `Cc1nnsc1C(=O)Nc1ccc(-n2nc(C(F)(F)F)cc2C(F)(F)F)c(C(F)(F)F)c1`, 134 to 136 °C; under `CC(C)(C)OC(=O)N1C(=O)[C@H](O)[C@@H]1CC1CCCCC1`, 105 to 106 °C.
Consider `CCOC(=O)c1nnc(NS(=O)(=O)c2ccc(NC(C)=O)cc2)s1`, for which the melting point was 201 to 202 °C.
Under `CC(=O)N1CC(C)(C)c2cc3nc(-c4ccnnc4)[nH]c3cc21` stands 225 to 260 °C.
Under `N#Cc1ccc(N2C(=O)N(CCO)C3(CCOCC3)C2=O)cc1C(F)(F)F` stands 196 to 197 °C; under `O=NCNC1=Nc2sc(Cl)cc2C(c2ccccc2)=NC1`, 108 to 110 °C; under `COc1cc(COc2cc(/C=C/C(=O)O)n(-c3ccccc3)n2)ccc1OCc1nc(-c2ccccc2)oc1C`, 194 to 195 °C.
Regarding `Cc1ncc(Cn2c(CC3CCN(Cc4ccccc4)CC3)nc3ccccc32)o1`, the melting point came out at 109 °C.
To `c1ccc(CCN2CCN(c3n[nH]c4c3CCCc3ccccc3-4)CC2)cc1` belongs 147 to 148 °C; to `CCNC(C)CN1CCc2c(c(=O)oc3c(OC)c(OC)ccc23)C1` (stereo unspecified), 125 to 127 °C.
Under `CO/C=C(/C(=O)OC)c1ccccc1COc1cccc(N2CCCCC2)c1` stands 64 to 66 °C; under `COc1ccc(-n2nc(CCC#N)cc2-c2ccc(Cl)cc2)cc1`, 107 to 109 °C; under `CCN1CCN(NC(=O)c2cc(Cl)c(N)cc2OC)CC1`, 177 to 178 °C.
Under `COc1ccc(C#N)cc1C(C)(C)C=O` stands 115 to 117 °C; under `CCc1cnc(-n2cc(CCCOc3c(CC(=O)O)cccc3OC)c(C(C)C)n2)nc1`, 103 to 104 °C; under `CC(C)(CNc1ccnc2cc(Cl)ccc12)NCc1ccc(Cl)c(C(F)(F)F)c1`, 158 to 160 °C.
As for `O=c1[nH]c2ccccc2n1CCN1CCN(c2cc(C(F)(F)F)ccc2O)CC1`, the melting point is 158 to 160 °C.
Under `COC(=O)C(=CN(C)C)N(C)c1nc(-c2ccc(Br)cc2)cs1` stands 184 to 185 °C.
For `O=C1OCC2=C1C(c1ccccc1Cl)c1c[nH]nc1N2` (stereo unspecified), the melting point was > 270 °C.
To `CCCCc1nc(Cl)c(CO)n1Cc1ccc(-c2nc3ccccn3c2C(=O)O)cc1` belongs 173 to 175 °C.
In the case of `O=C1CC2CSc3ccccc3C2=NN1c1ccc(Cl)cc1` (stereo unspecified), the melting point fell in the range of 146 to 147 °C.
As for `CC1(C)CN(c2cccc(-c3cnc4[nH]cc(C(=O)C(C)(C)C)c4n3)c2)C1`, the melting point fell in the range of 227 to 229 °C.
On to `Cc1cc(OC/C=C(/c2ccc(Cl)cc2)c2ccc(C#CCN3CCC(CO)CC3)cc2)ccc1OCC(=O)O`, for which the melting point lay in the range of 94 to 104 °C.
Under `CC(C)(C)OC(=O)Oc1ccc(C(C(=O)OC(c2ccccc2)c2ccccc2)N2CC(N)C2=O)cc1` (stereo unspecified) stands 120 to 122 °C; under `CN1C(=O)C(=Cc2ccc(O)c(C(C)(C)C)c2)SC1=S`, > 230 °C.
With `COc1ccc(-n2nc(C(C)C)cc2-c2ccc(OCCNS(C)(=O)=O)cc2)cn1`, the melting point lay within 96 to 97 °C.
Under `O=C(O)CCCCCCCNS(=O)(=O)c1ccc(F)cc1` stands 97 to 98 °C; under `COc1ccc(S(=O)(=O)C2CC(=O)NC2=O)cc1` (stereo unspecified), 144 to 146 °C; under `CNC(=O)c1ccc(N2CCN(Cc3cc4c(c(-c5ccccc5)c3)OC(C)C(=O)N4)CC2)cc1` (stereo unspecified), 185 to 189 °C.
To `COC(=O)c1c(Oc2nc(OC)cc(OC)n2)ccc2ncccc12` belongs 160 to 162 °C.
Under `COc1ccc(S(=O)(=O)NC(C)c2cc(F)ccc2-c2ccc(F)cc2F)c(OC)c1` (stereo unspecified) stands 192 to 194 °C; under `CCC12CCC3C4CCC(=O)C=C4CCC3C1CCC2(C)O` (stereo unspecified), 128 to 129 °C.
On to `OCC1OC(n2cnc3c(NC4CCCCC4)nc(Cl)nc32)CC1O` (stereo unspecified), for which the melting point was in the range of 160 to 162 °C.
Under `O=C1CCCc2ccccc2N1Cc1cccc(Br)c1` stands 81 to 82 °C; under `O=C(Nc1cccc(S(=O)(=O)N(CCO)CCO)c1)c1cnn2c(C(F)F)cc(-c3ccc(C(F)(F)F)cc3)nc12`, 208 °C; under `N#Cc1c(N2CCCN(c3ccccn3)CC2)cc[nH]c1=S`, 220 to 224 °C.
In turn, `C=CCNC(=O)Nc1ccc([N+](=O)[O-])cc1O` displayed a melting point of 135 to 136 °C.
For the molecule `CCCC(=O)c1c[nH]c2cc(COC(=O)c3ccccc3)ccc2c1=O`, the melting point is 228 to 231 °C.
Under `CN(C)CCCOc1ccccc1C=NCC(N)=O` stands 71 to 73 °C.
Under `O=C(O)c1cnncc1C(F)(F)F` stands 150 to 151 °C; under `CC1(C)CCC(C)(C)c2cc(C(C)(O)COc3ccc(C(=O)O)c(O)c3)ccc21` (stereo unspecified), 170 to 171 °C; under `CCOC(=O)c1cc2c(cn1)[nH]c1ccc(N(C)C)cc12`, 220 to 221 °C.
To `O=C(CBr)C(O)(CBr)c1ccc(F)cc1` (stereo unspecified) belongs 90 °C; to `C=CCOC(=O)C=CC(=O)NC(N)=O`, 108 to 110 °C; to `O=C1CC(Br)CCCCCCCCCN1` (stereo unspecified), 155 to 157 °C.
The molecule `Cc1ccc(NC(=O)c2nc(C)cc(C#N)c2C)nc1` had a melting point of 212 °C.
Under `Cc1ccccc1-c1ccc(O)c(C(=O)O)c1` stands 151 °C.
To `CNC(=O)c1ccccc1Nc1nc(Nc2ccc3c(c2)CCCC(=O)N3C)ncc1Cl` belongs 244 to 246 °C; to `N#Cc1ccc(C(=O)CC2C=COc3ccccc32)cc1` (stereo unspecified), 111 °C; to `CCOC(=O)NNc1nc2ccccc2n2cnc(C(=O)OCC)c12`, 126 to 128 °C.
Under `Cc1c2n(c(=O)c3c(O)cccc13)CCCS2` stands 110 to 112 °C; under `CCOCc1nc2c(N)nc3cccnc3c2n1Cc1ccccc1`, 173 to 174 °C.
The molecule `Cc1cn(C(C)(C)C(=O)N(C)C)nc1-c1cccc(Cl)c1` registered a melting point of 144 to 146 °C.
Under `Cc1nc(-c2ccccc2)c(CBr)o1` stands 75 to 76 °C; under `ClCc1coc(/C=C/c2ccccc2)n1`, 72 to 73 °C; under `Cc1noc2cc3c(cc12)C1(CO3)C(=O)N(CCC(C)C)c2ccccc21` (stereo unspecified), 135 to 138 °C.
With `O=C(O)C1CC=C(c2c(-c3ccccc3)[nH]c3ccccc23)CC1` (stereo unspecified), the melting point is 178 to 179 °C.
Under `Cc1noc(NS(=O)(=O)c2cccc([N+](=O)[O-])c2)c1Br` stands 151 to 153 °C; under `O=c1[nH]c2ccc3c(c2[nH]c1=O)CCCN3`, > 285 °C; under `Cc1ccc(-c2ccc(C(=O)c3ccc(Cl)cc3Cl)cc2)cc1`, 184 to 185 °C.

Values taken from a melting point compilation (Tetko et al.; mined from patent text by program, amines drawn as free bases though some values may be those of a salt).
